# According to ChEMBL document CHEMBL1201862, “PubChem BioAssay data set” (2004):
# Activity calls are given as the source filed them.
# Legend:
# [1] = target: Peroxisome proliferator-activated receptor gamma/Nuclear receptor coactivator 3 (Homo sapiens, UniProt P37231); assay type: functional;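 note: agonist potency for raising coactivator recruitment to the receptor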
# [2] = target: Peroxisome proliferator-activated receptor gamma/Nuclear receptor coactivator 1 (Homo sapiens, UniProt P37231); assay type: functional;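 note: agonist potency as compounds enhance coactivator SRC-1 recruitment to PPARgamma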
# Chain of Peroxisome proliferator-activated receptor gamma/Nuclear receptor coactivator 1 (P37231 whole entry): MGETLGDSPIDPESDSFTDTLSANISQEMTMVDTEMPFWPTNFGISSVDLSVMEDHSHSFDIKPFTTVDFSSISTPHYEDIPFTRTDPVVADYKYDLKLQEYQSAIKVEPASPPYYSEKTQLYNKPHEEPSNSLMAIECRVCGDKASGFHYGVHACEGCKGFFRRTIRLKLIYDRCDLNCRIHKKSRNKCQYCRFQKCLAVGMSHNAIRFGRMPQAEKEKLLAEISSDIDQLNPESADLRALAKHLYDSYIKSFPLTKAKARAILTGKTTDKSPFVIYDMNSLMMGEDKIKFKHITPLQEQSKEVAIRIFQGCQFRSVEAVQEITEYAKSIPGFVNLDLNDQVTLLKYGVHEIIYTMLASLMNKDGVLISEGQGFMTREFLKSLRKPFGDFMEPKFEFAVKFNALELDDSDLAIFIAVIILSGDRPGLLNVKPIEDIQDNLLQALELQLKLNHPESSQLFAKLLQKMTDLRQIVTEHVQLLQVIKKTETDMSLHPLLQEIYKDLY
# Chain of Peroxisome proliferator-activated receptor gamma/Nuclear receptor coactivator 1 (Q15788 whole entry, further chain): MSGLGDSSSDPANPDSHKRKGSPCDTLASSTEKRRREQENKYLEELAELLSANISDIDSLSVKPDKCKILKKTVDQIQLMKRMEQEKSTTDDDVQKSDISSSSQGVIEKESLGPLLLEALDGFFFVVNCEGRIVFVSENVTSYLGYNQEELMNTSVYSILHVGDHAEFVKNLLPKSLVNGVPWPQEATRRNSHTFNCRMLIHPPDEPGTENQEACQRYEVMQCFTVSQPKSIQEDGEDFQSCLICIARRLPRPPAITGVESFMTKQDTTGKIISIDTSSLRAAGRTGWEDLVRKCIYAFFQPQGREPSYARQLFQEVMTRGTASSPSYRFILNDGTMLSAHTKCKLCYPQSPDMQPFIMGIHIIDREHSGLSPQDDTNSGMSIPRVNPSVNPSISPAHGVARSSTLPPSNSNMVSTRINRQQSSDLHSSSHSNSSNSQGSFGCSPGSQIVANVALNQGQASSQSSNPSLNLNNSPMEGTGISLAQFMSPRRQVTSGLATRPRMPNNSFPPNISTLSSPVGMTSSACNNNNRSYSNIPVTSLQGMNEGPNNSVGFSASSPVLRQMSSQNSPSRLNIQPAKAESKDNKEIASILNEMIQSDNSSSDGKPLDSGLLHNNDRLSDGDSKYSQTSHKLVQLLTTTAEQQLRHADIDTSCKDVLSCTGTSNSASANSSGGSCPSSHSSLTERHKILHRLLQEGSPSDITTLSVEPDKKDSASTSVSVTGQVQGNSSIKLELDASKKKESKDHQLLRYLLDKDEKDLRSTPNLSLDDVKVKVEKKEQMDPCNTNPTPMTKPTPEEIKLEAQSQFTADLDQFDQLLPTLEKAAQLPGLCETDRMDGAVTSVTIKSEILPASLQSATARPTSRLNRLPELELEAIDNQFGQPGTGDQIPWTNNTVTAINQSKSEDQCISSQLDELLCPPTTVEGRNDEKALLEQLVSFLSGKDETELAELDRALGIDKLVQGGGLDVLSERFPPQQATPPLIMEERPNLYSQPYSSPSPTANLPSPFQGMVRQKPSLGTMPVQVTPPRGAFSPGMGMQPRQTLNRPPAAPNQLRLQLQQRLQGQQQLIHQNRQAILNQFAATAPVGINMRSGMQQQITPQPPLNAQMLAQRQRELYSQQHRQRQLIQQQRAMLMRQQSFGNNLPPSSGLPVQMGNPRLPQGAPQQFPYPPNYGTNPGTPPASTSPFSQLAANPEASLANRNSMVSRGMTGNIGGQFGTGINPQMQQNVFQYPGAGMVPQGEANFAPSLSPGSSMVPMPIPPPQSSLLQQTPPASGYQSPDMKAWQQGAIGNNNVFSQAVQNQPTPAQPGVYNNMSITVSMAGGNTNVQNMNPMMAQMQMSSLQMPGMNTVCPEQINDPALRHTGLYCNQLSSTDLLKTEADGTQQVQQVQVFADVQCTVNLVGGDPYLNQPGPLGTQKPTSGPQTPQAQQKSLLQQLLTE
# [3] = target: Peroxisome proliferator-activated receptor gamma/Nuclear receptor coactivator 2 (Homo sapiens, UniProt P37231); assay type: functional;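 note: agonist potency for raising coactivator recruitment to the receptor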
# [4] = tested on: H9c2; experiment: cells; assay type: functional, cell-based; settings: Rattus norvegicus, H9c2, Myocardium;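 note: confirmatory concentration-response retest of ultra-high-throughput screening hits for modulation of myocardial damage; cell death induced by hydrogen peroxide oxidative stress; compound pretreatment for 60 min then peroxide exposure for 2 h; potency is for protecting the cells against peroxide damage rather than for killing them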
# [5] = target: Cytochrome P450 3A4 (Homo sapiens, UniProt P08684); settings: Potency;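 note: confirmatory qHTS run detecting inhibitors and substrates of CYP3A4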
# Chain of Cytochrome P450 3A4 (P08684 whole entry): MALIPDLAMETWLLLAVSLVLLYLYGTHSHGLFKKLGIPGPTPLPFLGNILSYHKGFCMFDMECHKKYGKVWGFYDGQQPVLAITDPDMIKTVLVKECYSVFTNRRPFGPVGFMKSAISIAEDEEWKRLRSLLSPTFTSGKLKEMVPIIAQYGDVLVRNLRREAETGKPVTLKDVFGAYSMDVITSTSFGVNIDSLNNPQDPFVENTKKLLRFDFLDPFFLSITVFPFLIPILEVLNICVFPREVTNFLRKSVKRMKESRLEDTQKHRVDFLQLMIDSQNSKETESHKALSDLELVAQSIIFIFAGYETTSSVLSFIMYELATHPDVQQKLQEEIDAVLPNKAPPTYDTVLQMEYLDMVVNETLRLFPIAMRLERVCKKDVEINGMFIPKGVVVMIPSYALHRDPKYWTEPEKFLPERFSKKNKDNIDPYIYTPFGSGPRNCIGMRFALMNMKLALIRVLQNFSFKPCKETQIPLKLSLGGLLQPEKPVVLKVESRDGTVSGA
# [6] = target: T1, Endoribonuclease toxin MazF (Escherichia coli K-12, UniProt P0AE70); experiment: MazF toxin RNase activators, dose response, biochemical, fluorescence, single-stranded RNA substrate, uHTS hits (AID 588481); assay type: functional
# T1 sequence (P0AE70 whole entry): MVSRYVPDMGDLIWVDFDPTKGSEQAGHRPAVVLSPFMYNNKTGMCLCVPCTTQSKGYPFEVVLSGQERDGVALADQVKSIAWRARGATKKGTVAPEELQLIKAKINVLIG
# [7] = target: T1, Endoribonuclease toxin MazF; experiment: fluorescent RNA oligo signal without MazF, dose response, counter-screen for MazEF activator project, biochemical, fluorescence, single-stranded RNase substrate (AID 588502); assay type: functional
# [8] = target: T2, RNA-binding protein pos-1 (Caenorhabditis elegans, UniProt G5EF15); experiment: inhibitors of POS-1/mex-3 RNA binding, dose response, biochemical, fluorescence polarization (AID 1964);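 note: purified POS-1 fused to maltose binding protein made in E. coli; potency of compounds blocking POS-1 binding to fluorescent RNA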
# T2 sequence (G5EF15 whole entry): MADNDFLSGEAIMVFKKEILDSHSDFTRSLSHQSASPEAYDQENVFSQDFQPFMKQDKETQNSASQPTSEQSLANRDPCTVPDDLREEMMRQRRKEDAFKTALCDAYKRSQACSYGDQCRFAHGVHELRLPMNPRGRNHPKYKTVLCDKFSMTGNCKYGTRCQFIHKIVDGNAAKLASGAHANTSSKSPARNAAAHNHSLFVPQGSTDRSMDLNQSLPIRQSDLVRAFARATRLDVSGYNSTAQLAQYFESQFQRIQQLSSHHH
# [9] = target: T3, Zinc finger protein mex-5 (Caenorhabditis elegans, UniProt Q9XUB2); experiment: MEX-5/TCR-2 RNA interaction inhibitors, dose response, biochemical, C. elegans, fluorescence polarization (AID 1960)
# T3 sequence (Q9XUB2 whole entry): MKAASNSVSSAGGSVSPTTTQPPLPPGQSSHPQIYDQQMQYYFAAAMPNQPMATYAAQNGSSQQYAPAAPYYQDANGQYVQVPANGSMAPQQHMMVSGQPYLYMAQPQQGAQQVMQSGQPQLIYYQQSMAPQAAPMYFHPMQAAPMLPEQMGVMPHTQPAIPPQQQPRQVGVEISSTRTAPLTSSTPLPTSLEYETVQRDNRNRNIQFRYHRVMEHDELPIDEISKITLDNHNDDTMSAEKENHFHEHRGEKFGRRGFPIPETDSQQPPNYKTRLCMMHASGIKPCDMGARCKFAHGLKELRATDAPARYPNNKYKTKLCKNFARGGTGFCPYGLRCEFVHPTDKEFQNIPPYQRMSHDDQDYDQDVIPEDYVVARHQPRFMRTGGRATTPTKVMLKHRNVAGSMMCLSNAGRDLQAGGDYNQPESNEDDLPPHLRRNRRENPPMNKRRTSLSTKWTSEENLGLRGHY
# [10] = target: Heat shock protein HSP 90-alpha (Homo sapiens, UniProt P07900); assay type: functional, organism-based
# [11] = target: Large T antigen (Simian virus 40, UniProt P03070); assay type: functional, Betapolyomavirus macacae;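 note: Confirmatory-stage PubChem screen for compounds that inhibit SV40 T antigen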
# Chain of Large T antigen (P03070 whole entry): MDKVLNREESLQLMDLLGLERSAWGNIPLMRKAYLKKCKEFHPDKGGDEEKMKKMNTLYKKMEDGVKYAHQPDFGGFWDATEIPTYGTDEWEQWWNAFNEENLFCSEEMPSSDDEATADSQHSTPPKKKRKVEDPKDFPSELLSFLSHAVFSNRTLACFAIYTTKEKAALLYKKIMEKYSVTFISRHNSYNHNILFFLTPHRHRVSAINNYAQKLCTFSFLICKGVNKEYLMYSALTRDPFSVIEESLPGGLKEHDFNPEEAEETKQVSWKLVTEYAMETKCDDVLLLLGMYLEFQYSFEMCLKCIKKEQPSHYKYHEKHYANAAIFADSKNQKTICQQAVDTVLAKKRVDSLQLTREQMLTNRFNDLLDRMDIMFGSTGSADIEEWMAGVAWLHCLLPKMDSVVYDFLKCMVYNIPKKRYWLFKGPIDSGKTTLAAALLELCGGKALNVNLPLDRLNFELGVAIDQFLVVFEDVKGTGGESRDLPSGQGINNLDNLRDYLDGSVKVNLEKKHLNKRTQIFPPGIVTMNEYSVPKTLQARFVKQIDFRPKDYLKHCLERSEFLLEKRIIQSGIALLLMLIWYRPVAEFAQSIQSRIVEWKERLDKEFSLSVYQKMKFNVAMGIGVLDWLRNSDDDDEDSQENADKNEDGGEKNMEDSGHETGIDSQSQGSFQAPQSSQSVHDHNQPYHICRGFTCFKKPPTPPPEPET
# [12] = tested on: BJ; experiment: cells; assay type: functional, cell-based; settings: Homo sapiens
# [13] = tested on: INS1; experiment: beta cell apoptosis inhibitors, cytokine rescue, dose response, luminescence, retest (AID 449756); assay type: functional, cell-based; settings: Rattus norvegicus;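 note: cell death triggered by IL-1 beta plus TNF-alpha plus IFN-gamma mixture; protective hits raise ATP signal compared with cytokine alone wells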
# [14] = NIH-3T3 fibroblast cytotoxicity, dose response, cytotoxicity control, cell-based, fluorescence, Alamar Blue, secondary assay (AID 2327); assay type: functional;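 note: NIH-3T3 mouse fibroblasts cultured with fluconazole at 8 µg/mL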
# [15] = cytotoxicity toward DRD oncogenic fibroblasts, dose response, cell-based, non-viral oncogenic, luminescence (AID 1934); assay type: functional; settings: Homo sapiens
# [16] = C. albicans growth with fluconazole, confirmation, fluorescence, retest (AID 2467); assay type: functional, cell-based
# [17] = tested on: BJ; experiment: cytotoxicity toward BJ-TERT fibroblasts, dose response, cell-based, RAS-independent, luminescence (AID 1933); assay type: functional; settings: Homo sapiens
# [18] = tested on: BJ; experiment: cytotoxicity toward BJ-TERT-LT-ST fibroblasts, dose response, cell-based, RAS-independent, luminescence (AID 1935); assay type: functional; settings: Homo sapiens;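 note: BJ fibroblasts immortalized with TERT plus LT and ST oncogenes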
# [19] = target: T4, Streptokinase A (Streptococcus pyogenes serotype M1, UniProt P10520); experiment: S. pyogenes streptokinase expression inhibitors, potency, dose response, plasminogen activation absorbance, OD405 (AID 1914); assay type: functional, Streptococcus pyogenes M1 GAS;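 note: secreted streptokinase activity via plasminogen activation per viability signal from cell pellet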
# T4 sequence (P10520 whole entry): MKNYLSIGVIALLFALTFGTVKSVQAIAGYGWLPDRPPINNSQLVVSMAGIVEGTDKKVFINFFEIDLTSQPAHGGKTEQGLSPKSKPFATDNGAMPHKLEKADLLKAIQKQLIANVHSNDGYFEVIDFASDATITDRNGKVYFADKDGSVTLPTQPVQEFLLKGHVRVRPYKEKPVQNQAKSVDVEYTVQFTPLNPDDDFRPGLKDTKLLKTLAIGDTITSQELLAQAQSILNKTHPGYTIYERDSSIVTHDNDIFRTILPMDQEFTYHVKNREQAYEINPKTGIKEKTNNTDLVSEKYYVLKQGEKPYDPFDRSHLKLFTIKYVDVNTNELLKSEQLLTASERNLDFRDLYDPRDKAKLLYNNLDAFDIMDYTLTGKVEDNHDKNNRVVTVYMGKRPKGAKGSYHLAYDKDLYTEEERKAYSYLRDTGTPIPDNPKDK
# [20] = tested on: Streptococcus; experiment: Group A Streptococcus viability loss, dose response, counter-screen for streptokinase expression inhibitor project, luminescence, BacTiterGlo (AID 1915); assay type: functional, organism-based;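 note: potency for reduction of bacterial viability or growth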
# [21] = tested on: Streptococcus sp. 'group A'; experiment: growth inhibition of control SK(-) GAS strain, dose response, counter-screen for streptokinase expression inhibitor project, luminescence, kanamycin, BacTiterGlo, confirmation (AID 1900); assay type: functional, organism-based
# [22] = target: T5, Rac GTPase-activating protein 1 (Homo sapiens, UniProt Q9H0H5); experiment: MgcRacGAP GTPase-activating activity inhibitors, confirmation, biochemical, ADP Hunter fluorescence, primary and confirmatory (AID 624330); assay type: functional
# T5 sequence (Q9H0H5 whole entry): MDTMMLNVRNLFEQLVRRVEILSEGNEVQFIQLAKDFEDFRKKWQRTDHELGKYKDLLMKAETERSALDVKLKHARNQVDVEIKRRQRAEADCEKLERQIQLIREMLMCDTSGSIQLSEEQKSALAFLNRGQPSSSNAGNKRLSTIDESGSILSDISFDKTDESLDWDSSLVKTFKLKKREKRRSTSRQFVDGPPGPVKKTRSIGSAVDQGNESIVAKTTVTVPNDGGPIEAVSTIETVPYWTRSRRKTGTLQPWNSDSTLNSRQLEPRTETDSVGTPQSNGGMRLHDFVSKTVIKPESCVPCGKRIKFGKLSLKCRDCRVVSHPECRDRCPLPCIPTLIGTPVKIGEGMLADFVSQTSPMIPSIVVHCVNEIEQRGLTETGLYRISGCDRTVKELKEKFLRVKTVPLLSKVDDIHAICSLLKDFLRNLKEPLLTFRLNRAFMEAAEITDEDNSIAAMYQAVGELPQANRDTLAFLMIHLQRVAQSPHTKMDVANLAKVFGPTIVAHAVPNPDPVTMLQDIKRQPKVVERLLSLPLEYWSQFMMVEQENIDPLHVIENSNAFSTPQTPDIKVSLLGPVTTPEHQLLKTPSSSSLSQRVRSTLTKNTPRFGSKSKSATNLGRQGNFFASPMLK
# [23] = inhibitors of SNCA 5'UTR-driven reporter translation, confirmation, H4 neuroglioma cells, luminescence (AID 1988); assay type: functional, cell-based
# [24] = Luminescence Cell-Based Dose Response HTS to Identify Inhibitors of 5'UTR Stem-Loop Driven Prion Protein mRNA Translation in H4 Neuroglioblastoma Cells. [Related pubchem assays: 1827 (Project Summary), 1813 (Primary HTS)]; assay type: functional
# [25] = inhibitors of firefly luciferase expression or activity, dose response, H4 neuroglioma cells, luminescence (AID 1990); assay type: functional, cell-based
# [26] = microbe, parasite or virus in culture; assay type: functional; settings: Mycobacterium tuberculosis
# Chain of Peroxisome proliferator-activated receptor gamma/Nuclear receptor coactivator 3 (P37231 whole entry): as the sequence (P37231 whole entry) above
# Chain of Peroxisome proliferator-activated receptor gamma/Nuclear receptor coactivator 3 (Q9Y6Q9 whole entry, further chain): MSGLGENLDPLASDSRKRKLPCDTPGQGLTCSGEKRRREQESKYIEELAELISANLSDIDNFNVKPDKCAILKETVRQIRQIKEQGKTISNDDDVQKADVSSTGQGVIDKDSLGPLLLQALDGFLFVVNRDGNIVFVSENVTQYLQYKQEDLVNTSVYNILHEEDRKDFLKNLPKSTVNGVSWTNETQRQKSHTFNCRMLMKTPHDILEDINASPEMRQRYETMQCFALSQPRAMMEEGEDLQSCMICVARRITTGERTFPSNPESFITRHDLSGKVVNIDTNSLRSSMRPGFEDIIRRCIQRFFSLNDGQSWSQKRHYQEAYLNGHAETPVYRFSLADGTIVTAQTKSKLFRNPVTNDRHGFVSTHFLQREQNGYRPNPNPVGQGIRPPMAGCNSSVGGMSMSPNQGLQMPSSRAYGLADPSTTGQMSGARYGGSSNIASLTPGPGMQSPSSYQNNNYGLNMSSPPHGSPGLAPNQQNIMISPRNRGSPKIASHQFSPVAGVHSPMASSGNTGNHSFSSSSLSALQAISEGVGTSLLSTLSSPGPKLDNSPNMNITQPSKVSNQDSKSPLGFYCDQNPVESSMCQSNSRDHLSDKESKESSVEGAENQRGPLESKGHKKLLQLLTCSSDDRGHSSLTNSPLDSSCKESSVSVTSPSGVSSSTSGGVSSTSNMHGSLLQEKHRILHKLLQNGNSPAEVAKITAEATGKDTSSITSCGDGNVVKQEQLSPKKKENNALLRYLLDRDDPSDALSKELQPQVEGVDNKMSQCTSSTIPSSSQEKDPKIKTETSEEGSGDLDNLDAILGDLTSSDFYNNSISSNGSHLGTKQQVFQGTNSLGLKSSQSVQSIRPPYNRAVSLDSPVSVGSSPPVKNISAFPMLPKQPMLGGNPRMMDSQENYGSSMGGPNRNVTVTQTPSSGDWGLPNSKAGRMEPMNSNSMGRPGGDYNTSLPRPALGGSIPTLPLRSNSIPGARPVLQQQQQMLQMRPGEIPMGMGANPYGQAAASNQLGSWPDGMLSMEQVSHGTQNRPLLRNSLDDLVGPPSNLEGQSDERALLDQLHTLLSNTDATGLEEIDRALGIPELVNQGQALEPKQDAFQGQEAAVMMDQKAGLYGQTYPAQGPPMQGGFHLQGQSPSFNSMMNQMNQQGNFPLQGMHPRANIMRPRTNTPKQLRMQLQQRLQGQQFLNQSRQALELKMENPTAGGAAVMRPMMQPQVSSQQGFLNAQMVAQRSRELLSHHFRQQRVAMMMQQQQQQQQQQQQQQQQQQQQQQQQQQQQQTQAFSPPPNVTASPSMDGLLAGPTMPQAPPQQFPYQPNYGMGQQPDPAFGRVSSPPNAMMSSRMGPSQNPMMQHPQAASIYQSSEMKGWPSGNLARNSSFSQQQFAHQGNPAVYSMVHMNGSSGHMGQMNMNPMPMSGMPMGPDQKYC
smiles,measurement,setting,value
O=C(COc1ccc2ccccc2c1)NNC(=O)Cc1ccccc1,EC50,[1],6.57 µM (active)
same,EC50,[2],6.07 µM (active)
same,EC50,[3],5.17 µM (active)
COc1ccc(Cl)cc1NC(=O)CN(C)C(=O)Cn1[nH]c(=O)c2ccccc2c1=O,IC50,[4],20.7 µM (active)
Clc1nccc2c1ccc1ccccc12,AC50,[5],12.6 µM (inconclusive)
CCN1C[C@@]2(COC)C3[C@@H](OC)C4[C@@H]1[C@@]3(C1C[C@@]3(O)[C@H](OC(=O)c5ccccc5)C1[C@]4(OC(C)=O)[C@@H](O)[C@@H]3OC)[C@@H](OC)C[C@H]2O (some centres not stated),AC50,[5],31.6 µM (inconclusive)
CC(=O)Oc1cc2c(c(C)c1OC(C)=O)CC=C1[C@]3(C)CC[C@]4(C)CC[C@@](C)(C(=O)O)CC4[C@]3(C)CC[C@]12C (some centres not stated),AC50,[5],31.6 µM (inconclusive)
C=CCN1C(=O)/C(=C2/Sc3ccccc3N2CC)SC1=S,EC50,[6],> 99 µM (inactive)
same,EC50,[7],56.1 µM (inactive)
same,EC50,[8],16.1 µM (active)
same,EC50,[9],9.69 µM (active)
CCc1nc2ccc(C(=O)Nc3nnc(C)s3)cc2nc1CC,EC50,[1],> 79.4 µM (not active)
same,EC50,[2],> 79.4 µM (not active)
same,EC50,[3],> 79.4 µM (not active)
N#CSCC(=O)c1cccc2ccccc12,AC50,[10],1.61 µM (active)
same,IC50,[11],20.6 µM (active)
CCOC(=O)c1ccc(CC(=O)c2oc3cc(O)ccc3c2C)o1,EC50,[6],> 99 µM (inactive)
same,EC50,[7],81.2 µM (inactive)
CCn1cc(/C=C/c2cc[n+](C)cc2)c2ccccc21,EC50,[12],> 150 µM (not active)
same,AC50,[13],4.58 µM (active)
same,EC50,[14],> 150 µM (inconclusive)
same,EC50,[15],> 150 µM (not active)
same,EC50,[16],0.946 µM (active)
same,EC50,[17],23.8 µM (active)
same,EC50,[18],> 150 µM (not active)
CCOC(=O)c1cc2c(=O)n3ccccc3nc2n(Cc2ccco2)/c1=N/C(=O)c1cccnc1,IC50,[4],24.3 µM (active)
Oc1nc(CN2CCCC2)nc2sc3c(c12)CCC3,IC50,[4],> 79 µM (inactive)
NC(=O)c1c(NC(=O)Cn2nc(C(=O)O)c3ccccc3c2=O)sc2c1CCC2,IC50,[4],> 79 µM (inactive)
CCCn1c(-c2ccc(F)cc2)nc2c(NC(C)CN(C)C)nc(C)nc21 (configuration not stated),AC50,[5],20 µM (inconclusive)
COc1cc(O)cc(/C=C/c2ccccc2)c1 [PINOSYLVIN METHYL ETHER],AC50,[5],31.6 µM (inconclusive)
COc1ccc(C2/C=C\CN(S(=O)(=O)c3cccc4cccnc34)CC(=O)N2Cc2ccc(F)cc2)cc1 (configuration not stated),IC50,[4],> 79 µM (inactive)
Cc1ccc(/C=N/NC(=O)C2=NNC(c3ccccc3)(c3ccccc3)C2)c(O)c1,EC50,[14],8.56 µM (active)
same,EC50,[19],> 150 µM (not active)
same,EC50,[20],> 150 µM (not active)
same,EC50,[16],2.3 µM (active)
same,EC50,[21],2.9 µM (active)
N#CC(C(=O)NCc1ccccc1)c1nc2ccccc2nc1N1CCCC1 (configuration not stated),EC50,[6],4.64 µM (active)
same,EC50,[7],> 99 µM (inactive)
same,EC50,[8],> 300 µM (inconclusive)
same,EC50,[9],> 300 µM (inconclusive)
COc1cc(NC(=O)c2ccccc2)c(OC)cc1NC(=O)Cc1ccc(Br)cc1,EC50,[6],29.6 µM (inactive)
same,EC50,[7],> 99 µM (inactive)
Oc1ccc(Nc2nc(NCC3CCCO3)c3ccccc3n2)cc1 (configuration not stated),IC50,[11],9.48 µM (active)
COc1cc(O)c(C(=O)/C=C/c2ccccc2)c(OC)c1 [FLAVOKAWAIN B],AC50,[5],15.8 µM (inconclusive)
CCN(CC)C(=O)c1ccc2c3c(cccc13)C(=O)N(CCc1ccc(OC)c(OC)c1)C2=O,IC50,[4],> 79 µM (inactive)
Cc1nc(OCc2ccccc2)c2ccccc2n1,IC50,[4],> 79 µM (inactive)
COc1ccc(OC)c(C(=O)COC(=O)c2ccc([N+](=O)[O-])o2)c1,IC50,[4],> 79 µM (inactive)
CCCCCCCC#Cc1ccccc1/C=N/[S+]([O-])C(C)(C)C (configuration not stated),AC50,[5],3.16 µM (inconclusive)
CCOC(=O)c1[nH]c2ccc(C)cc2c1N,EC50,[14],> 160 µM (inconclusive)
same,IC50,[22],24.1 µM (active)
same,EC50,[16],> 38 µM (not active)
Cc1cc(C)n(-c2nc3nonc3nc2Nc2cccc(C)c2C)n1,EC50,[6],> 99 µM (inactive)
same,EC50,[7],> 99 µM (inactive)
COc1ccc(-c2nn(-c3ccccc3)cc2/C=N/NC(=S)NC(C)C)cc1OC,EC50,[23],48.4 µM (active)
same,EC50,[14],22.9 µM (active)
same,EC50,[24],> 120 µM (not active)
same,EC50,[16],> 38 µM (not active)
same,EC50,[25],20.2 µM (active)
O=C(C1CC1)N1CCN(c2ccc(O)cc2)CC1,IC50,[11],11.5 µM (active)
COc1ccc(OCC(=O)Nc2c(C(=O)N(CCN(C)C)Cc3ccco3)oc3ccccc23)cc1,CC50,[26],> 40 µM (active)
same,EC50,[14],> 160 µM (inactive)
same,EC50,[16],> 38 µM (not active)
CCc1ccc(C2=NN(S(C)(=O)=O)C(c3cccs3)C2)cc1 (configuration not stated),EC50,[6],> 99 µM (inactive)
same,EC50,[7],> 99 µM (inactive)
CCc1cc(C(=O)N/N=C/c2ccc(O)cc2)c2ccccc2n1,IC50,[11],> 100 µM (active)
COc1ccc(NC(=O)C(OC(=O)c2ccc([N+](=O)[O-])o2)c2ccccc2)cc1Cl (configuration not stated),IC50,[4],> 79 µM (inactive)
CCOc1cc(/C=N/Nc2nc(C)cc(O)n2)ccc1O,IC50,[11],24.9 µM (active)
